In patent US20250099427A1, “Drug and Method of Treating or Preventing Renal Disease Using Drug” (Showa University, priority 2018, published 2025):

Assays:
[1] = test system: Chronic Renal Failure Animal Model; assay: Test using chronic renal failure animal model (nephrectomy + acetic acid application), renal function parameters; format: in vivo, mouse; conditions: mean±standard error; for Urinary output / Urinary protein: 24 h urine 12 weeks after acetic acid; for BUN / sCr: evaluated 12 weeks after acetic acid; for Ccr: creatinine clearance, 12 weeks after acetic acid
Experimental: A male ddY strain mouse (body weight: 30 g to 40 g) was used. Under anesthesia with isoflurane, the right flank of the mouse was incised, the renal arteries and veins were ligated, and then the right kidney was isolated. After suturing, acrinol was applied to the suture site as a disinfection treatment, and enrofloxacin was subcutaneously administered at 5 mg/kg as a preventive measure against infection, and acetaminophen was subcutaneously administered at 75 mg/kg as an analgesic treatment. After a recovery period of 3 to 4 weeks, the left abdomen of the mouse was incised, 100% acetic acid was applied to both sides of the kidney 10 times. This was defined as one course, and two courses were conducted at 5 minute intervals. After suturing, postoperative treatment was conducted in the same manner as in the removal of one of the kidneys. Considering the effect of surgery, a sham group to which acetic acid was not applied was provided.
4 weeks after the application of acetic acid, SMTP-7 was administered at a dose of 10 mg/kg or 30 mg/kg. The administration was carried out three times a week for 8 consecutive weeks by intraperitoneal administration. In addition, physiological saline was similarly administered to the sham group (without acetic acid application) and the Control group (with acetic acid application).
12 weeks after the application of acetic acid, urine was collected for 24 hours using a metabolic cage, and the urinary output was measured. During collecting urine, water was freely given. After urine collection, blood was collected from the descending aorta, the collected blood was centrifuged at 3000 rpm for 15 minutes, serum was separated, and BUN (urea nitrogen) and sCr (serum creatinine value) were measured. Further, protein and creatinine in the urine were also measured to calculate creatinine clearance (Ccr). BUN was measured using Urea B-test Wako (manufactured by Wako Pure Chemical Industries, Ltd.) and a QuantiChrom Urea Assay Kit (manufactured by Funakoshi Co., Ltd.), sCr was measured using Lab Assay Creatinine (manufactured by Wako Pure Chemical Industries, Ltd.), and urinary protein was measured using a BCA Protein assay kit (Thermo Fisher Scientific).
Renal function was evaluated by measuring BUN, sCr, urinary output, and urinary protein. In addition, urinary creatinine was measured to calculate creatinine clearance (Ccr).
In Table 9, the experimental results are expressed in mean±standard error. With reference to statistically significant difference, an unpaired test between two groups (Student's t-test) was conducted for comparison between two groups, and one-way analysis of variance was conducted and then a Dunnett test was conducted for comparison among multiple groups. In all cases, a significance level of 5% or less (P<0.05) was regarded as significant difference.
The experiment and evaluation were carried out in the same manner as in the SMTP-7 (30 mg/kg) administration group, except that edaravone (30 mg/kg) was administered instead of SMTP-7 in the SMTP-7 (30 mg/kg) administration group.

[2] = test system: Acute Renal Failure Animal Model; assay: Acute renal failure animal model, pathological tissue specimen (HE staining) lesion scores; format: in vivo, mouse; conditions: 10 mg/kg
Experimental: 24 hours after the ischemia and reperfusion processes, urine was collected for 24 hours using a metabolic cage, measurement of body weight was conducted, and blood was collected. Thereafter, nephrectomy was conducted, and formalin-fixed kidney was permeated with paraffin using an automatic embedding device to produce a paraffin block. The paraffin block was sliced into 3 μm sections with a microtome, and placed on a slide glass. Then, the sections were stretched with a paraffin stretcher at 52° C., and sufficiently dried overnight in a paraffin melter at 37° C. After deparaffinization and washing with water, the sections were stained with a Mayer's hematoxylin staining solution for 1 minute and washed with running water for 15 minutes. Thereafter, the sections were stained with an eosin staining solution for 45 seconds, and dehydrated with 80% to 100% ethanol, followed by clearing with xylene and sealing with marinol. Each specimen was examined microscopically at a magnification of 50 using an optical microscope. With respect to tubular dilatation, tubular necrosis, and tubular casts in the cortex, outer zone of outer medulla, and inner zone of outer medulla, the percentage of lesions in each site was evaluated according to the following criteria.
In Table 12, the experimental results are expressed in mean±standard error in eight mice in each group. For comparison among multiple groups, firstly, one-way analysis of variance (ANOVA) was conducted, and then a Bonferroni test was conducted, if significant difference was recognized. Significant difference was recognized with a significance level of less than 5% (P<0.05).

[3] = 10 mg/kg intraperitoneal three times a week for 8 weeks from 4 weeks after acetic acid
[4] = 30 mg/kg intraperitoneal three times a week for 8 weeks from 4 weeks after acetic acid
[5] = points 0 (no lesion) to 4 (severe, 50% or more), mean±SE, 8 mice

Which Urinary output [1, 3] does the source give for `CC(C)=CCC/C(C)=C/CC[C@@]1(C)Oc2c(c(O)cc3c2CN(CCC[C@@H](C(=O)O)N2Cc4c(cc(O)c5c4O[C@](C)(CC/C=C(\C)CCC=C(C)C)[C@@H](O)C5)C2=O)C3=O)C[C@@H]1O` [SMTP-7] here?
Its Urinary output is 0.0986 ± 0.022 mL/min/kg.

And the Urinary protein [1, 3]?
The Urinary protein was 968 ± 137 mg/kg/day.

What about the BUN [1, 3] of the same compound?
The BUN was 80.5 ± 13.3 mg/dL.

What about the sCr [1, 3] of the same compound?
Its sCr is 0.71 ± 0.07 mg/dL.

What about the Urinary output [1, 4] of the same compound?
Its Urinary output is 0.0537 ± 0.0128 mL/min/kg.

And the Urinary protein [1, 4]?
Its Urinary protein is 527 ± 96.2 mg/kg/day.

What about the BUN [1, 4] of the same compound?
Its BUN is 55.1 ± 1.57 mg/dL.

And the sCr [1, 4]?
The sCr was 0.60 ± 0.05 mg/dL.

What about the Ccr [1, 3] of the same compound?
The Ccr was 1.95 ± 0.23 mL/min/kg.

And the Ccr ([1]; 30 mg/kg intraperitoneal three times a week for 8 weeks from 4 weeks after acetic acid, 30 mg/kg)?
Its Ccr is 2.66 ± 0.37 mL/min/kg.

And the “Histopathological changes (lesion changes), result in words” value ([2]; compared to control group)?
Its value is “lesion changes other than the lesion change in tubular casts in the renal cortex were significantly improved”.

What about the “Tubular cast score, Cortex” value [2, 5] of the same compound?
Its value is 0.9 ± 0.1.

What about the “Tubular cast score, Inner zone of outer medulla” value [2, 5] of the same compound?
The value was 1.0 ± 0.2.

What about the “Tubular cast score, Outer zone of outer medulla” value [2, 5] of the same compound?
The value was 0.9 ± 0.1.

What about the “Tubular dilatation score, Cortex” value [2, 5] of the same compound?
The value was 2.0 ± 0.3.

And the “Tubular dilatation score, Inner zone of outer medulla” value [2, 5]?
The value was 1.0 ± 0.2.

And the “Tubular dilatation score, Outer zone of outer medulla” value [2, 5]?
Its value is 1.4 ± 0.4.

And the “Tubular necrosis score, Cortex” value [2, 5]?
The value was 0.4 ± 0.2.

What about the “Tubular necrosis score, Inner zone of outer medulla” value [2, 5] of the same compound?
The value was 0.5 ± 0.2.

And the “Tubular necrosis score, Outer zone of outer medulla” value [2, 5]?
Its value is 0.4 ± 0.2.
